Laboratory results from patent US8435769B2, “Use of glyphosate to produce shikimic acid in microorganisms” (Monsanto Technology LLC, priority 2007, dated 2013).

What was measured:
Format in all cases: cell-based, Escherichia coli
[1] = test system: E. coli K-12 host strain LBB427 (untransformed and transformed with plasmid pXT1457); test: Growth of shake-flask cultures after glyphosate addition; conditions: glyphosate 3.38 grams per liter (20 millimolar) added 2.5 hours after inoculation; Vogel-Bonner minimal culture medium; 37 degrees Celsius
Protocol: (§1) To confirm that the new plasmid was functioning as expected, the wild-type E. coli K-12 host strain LBB427 was transformed with the plasmid pXT1457. Techniques for transforming bacteria, including strains of E. coli, are known in the art (Sambrook and Russell, 2001; Ausubel et al., 2005). The shikimic acid and phenylalanine production levels of this strain were compared to that of the untransformed host strain LBB427. […] At 24 hours after inoculation, the cells were pelleted by centrifugation, and the culture supernatants were analyzed by a high-pressure liquid chromatography (HPLC) assay for shikimic acid and phenylalanine content. […]
(§2) The untransformed host strain LBB427 and the host strain LBB427 transformed with the plasmid pXT1457 were grown in 50 milliliters of the Vogel-Bonner minimal culture medium described in Example 1. […] At 24 hours after inoculation (i.e., 21.5 hours after N-(phosphonomethyl)glycine addition), the cells were pelleted by centrifugation, and the culture supernatants were analyzed for shikimic acid content using the HPLC assay described in Example 1. The culture supernatants of the host strain LBB427 transformed with the plasmid pXT1457 were also analyzed for phenylalanine content.

[2] = test system: untransformed host strain LBB427; test: HPLC assay of culture supernatant after glyphosate treatment, untransformed strain
Protocol: as §1
[…] At 24 hours after inoculation (i.e., 21.5 hours after N-(phosphonomethyl)glycine addition), the cells were pelleted by centrifugation, and the culture supernatants were analyzed for shikimic acid content using the HPLC assay described in Example 1. The culture supernatants of the host strain LBB427 transformed with the plasmid pXT1457 were also analyzed for phenylalanine content. […]

[3] = test system: host strain LBB427 transformed with the plasmid pXT1457; test: HPLC assay of culture supernatant after glyphosate treatment, pXT1457 strain
Protocol: To confirm that the new plasmid was functioning as expected, the wild-type E. coli K-12 host strain LBB427 was transformed with the plasmid pXT1457. Techniques for transforming bacteria, including strains of E. coli, are known in the art (Sambrook and Russell, 2001; Ausubel et al., 2005). The shikimic acid and phenylalanine production levels of this strain were compared to that of the untransformed host strain LBB427. The strains were cultured in 50 milliliters of Vogel-Bonner minimal culture medium (Vogel and Bonner, 1956), consisting of magnesium sulfate heptahydrate (MgSO4-7H2O) at 298 milligrams per liter, anhydrous dibasic potassium phosphate (K2HPO4) at 14.93 grams per liter, sodium ammonium phosphate tetrahydrate (NaNH4HPO4-4H2O) at 5.22 grams per liter, anhydrous citric acid (the free acid form) at 2.73 grams per liter, and glucose at 2.00 grams per liter. The pH of the culture medium was 7.0. For the strain LBB427 transformed with the plasmid pXT1457, ampicillin was included in the culture medium at 100 milligrams per liter. The cultures were grown in flasks, on an incubator shaker operating at 300 rpm and 37 degrees Celsius. At 24 hours after inoculation, the cells were pelleted by centrifugation, and the culture supernatants were analyzed by a high-pressure liquid chromatography (HPLC) assay for shikimic acid and phenylalanine content. To the samples to be assayed, phosphoric acid was added to a final concentration of 6 millimolar. […]
as §2, with “content. […]” for “content.”

[4] = test system: host strain LBB427 transformed with the plasmid pXT1483; test: HPLC assay of culture supernatant after glyphosate treatment, pXT1483 strain
[5] = test system: host strain LBB427 transformed with the plasmid pXT1483; test: High-density phosphate-limited fermentation culture with glyphosate addition; conditions: optical density of 40; glyphosate 20 millimolar; twelve hours after addition; sample at pH 1.0, 60 degrees Celsius, 15 minutes
Protocol: The host strain LBB427 transformed with the plasmid pXT1483 can be grown to high optical densities in a phosphate-limited fermentation culture. Fermentations are conducted in a chemically-defined minimal medium containing 5.9 grams of anhydrous ammonium sulfate ((NH4)2SO4), 1.8 grams of anhydrous dibasic potassium phosphate (K2HPO4), 1.0 grams of monobasic sodium phosphate monohydrate (NaH2PO4—H2O), 550 milligrams of magnesium sulfate heptahydrate (MgSO4-7H2O), 27 milligrams of ferric chloride hexahydrate (FeCl3-6H2O), 0.5 milligrams of zinc sulfate heptahydrate (ZnSO4-7H2O), 0.9 milligrams of cobalt chloride hexahydrate (CoCl2-6H2O), 0.9 milligrams of sodium molybdate dihydrate (Na2MoO4-2H2O), 1.1 milligrams of cupric sulfate pentahydrate (CuSO4-5H2O), 0.3 milligrams of boric acid (H3BO3), and 0.7 milligrams of manganese sulfate monohydrate (MnSO4—H2O) per liter of water. The fermenter is maintained at 37 degrees Celsius. The pH is maintained at 7.0 by the controlled addition of concentrated (about 29%) ammonium hydroxide (NH4OH). […]
Twelve hours after N-(phosphonomethyl)glycine addition, samples of the fermentation cultures are taken for analysis of shikimic acid levels. […] The cells are pelleted by centrifugation, and the culture supernatants are analyzed for shikimic acid content using the HPLC assay described in Example 1.

[6] = glyphosate 20 millimolar and phosphate-limitation (PF culture medium), 24 hours after inoculation
[7] = glyphosate 20 millimolar, Vogel-Bonner minimal culture medium, 24 hours after inoculation (21.5 hours after addition)

With O=C(O)CNCP(=O)(O)O [glyphosate, N-(phosphonomethyl)-glycine] the “Growth of the cultures” value [1] was “almost completely inhibited”, the “shikimic acid in the culture supernatant” value [2, 6] was “about 200 milligrams of shikimic acid per OD unit per liter” and the “shikimic acid in the culture supernatant” value [2, 7] was “did not produce detectable levels of shikimic acid”. For the same molecule, the “shikimic acid in the culture supernatant” value [3, 6] was “about 250 milligrams of shikimic acid per OD unit per liter”, the “shikimic acid in the culture supernatant” value [3, 7] was “did not produce detectable levels of shikimic acid” and the “phenylalanine in the culture supernatant” value ([3]; glyphosate 20 millimolar, Vogel-Bonner minimal culture medium, 24 hours after inoculation, about 400 without glyphosate) was “about 50 milligrams of phenylalanine per OD unit per liter”. The “shikimic acid in the culture supernatant” value [4, 6] was “about 400 milligrams of shikimic acid per OD unit per liter”, the “level of shikimic acid in the culture supernatant” value ([4]; glyphosate 20 millimolar and phosphate-limitation, culture sample with cells adjusted to pH 1.0, heated to 60 degrees Celsius for 15 minutes) was “about 600 milligrams per OD unit per liter” and the “shikimic acid in the culture supernatant” value [5] was “about 24 grams of shikimic acid per liter”.
